# Laboratory results published in patent publication US9333178B2, “Essential oil microparticles and uses thereof for preventing enteric diseases” (Universidade Estadual de Campinas—UNICAMP, priority 2012, dated 2016).
# Experiments:
# [1] = system: panel of human tumor cells; experiment: In vitro cytotoxicity, SRB assay, mean over tumor lines; type: cell-based; conditions: arithmetic mean of the TGI values for tumor lines
# Description: (§1) The in vitro cytotoxicity of essential oils (present invention) were evaluated against two normal cell lines (VERO—African green monkey kidney epithelial cells and HaCat—immortal human keratinocytes) and against a panel of human tumor cells.
# (§2) Based on the results, growth rate graphics from the sample concentration for each of the tested strain were generated.
# The test results obtained are shown in FIG. 1 (present invention) and table 2. In this model, one way to infer the growth rate is by spectrophotometric reading of the absorbance of cellular proteins stained with sulforhodamine B (SRB), an anionic dye staining bright pink. This dye can bind to protein terminations of basic amino acids in living cells fixed with Trichloroacetic acid (TCA), thus being an independent assay of cell metabolism and allowing a sensitive measurement of protein linearly with the number of cells in culture. […]
# Chemotherapy doxorubicin was used as positive control. […] This is because with successive passages necessary for the maintenance of cell culture, there is the possibility of changing the lineage in culture, and this mutation could be detected by the change in response against doxorubicin. […]
# 786-0 (kidney) = experiment: In vitro cytotoxicity, SRB assay; type: cell-based, human
# Description: as §1, §2
# (§3) The test results obtained are shown in FIG. 1 (present invention) and table 2. In this model, one way to infer the growth rate is by spectrophotometric reading of the absorbance of cellular proteins stained with sulforhodamine B (SRB), an anionic dye staining bright pink. This dye can bind to protein terminations of basic amino acids in living cells fixed with Trichloroacetic acid (TCA), thus being an independent assay of cell metabolism and allowing a sensitive measurement of protein linearly with the number of cells in culture.
# (§4) This test allows us to evaluate the antitumor activity through exposure of human tumor cells in exponential growth phase at different concentrations of the sample and whether that exposure led to an interruption in the growth rate without cell death ([…]) or caused the death cell (cytocidal activity). To measure the activity, an effective concentration called TGI (total growth inhibition, concentration required for 0% cell growth occurs) (Shoemaker, 2006) was calculated.
# (§5) Chemotherapy doxorubicin was used as positive control. In addition to a standard of comparison, the main purpose of using this control was to verify that all employed cell lines kept the profile of response to chemotherapy. This is because with successive passages necessary for the maintenance of cell culture, there is the possibility of changing the lineage in culture, and this mutation could be detected by the change in response against doxorubicin. Furthermore, in order to minimize the occurrence of mutations, the cell lines are perpetuated only by up to 20 passages, after which they are replaced by new cells of the same strain that were maintained frozen.
# [2] = system: NCI-ADR/RES (ovary, with multidrug resistant phenotype); experiment: In vitro cytotoxicity, SRB assay; type: cell-based, human
# Description: as §1, §2, §3, §4, §5
# [3] = system: HaCat (keratinocyte, immortalized normal cell); experiment: In vitro cytotoxicity, SRB assay; type: cell-based, human; conditions: normal cell line
# Description: as §1, §2, §3, §4, §5
# MCF-7 (breast) = experiment: In vitro cytotoxicity, SRB assay; type: cell-based, human
# Description: as §1, §2, §3, §4, §5
# [4] = system: NCI-H460 (lung, non-small cells); experiment: In vitro cytotoxicity, SRB assay; type: cell-based, human
# Description: as §1, §2, §3, §4, §5
# U251 (glioma, CNS) = experiment: In vitro cytotoxicity, SRB assay; type: cell-based, human
# Description: Based on the results, growth rate graphics from the sample concentration for each of the tested strain were generated. Three effective concentrations called GI50 (growth inhibition, the concentration required to disrupt 50% cell growth), TGI (total growth inhibition, the concentration required for 0% of cell growth) and LC50 (lethal concentration, concentration required for 50% cell death) could be calculated by nonlinear regression, sigmoidal, using 8.0 Origin software.
smiles,measurement,setting,value
COc1cccc2c1C(=O)c1c(O)c3c(c(O)c1C2=O)C[C@@](O)(C(=O)CO)C[C@@H]3O[C@H]1C[C@H](N)[C@H](O)[C@H](C)O1 [Doxorubicin],TGI Average,[1],>25 µg/mL
same,TGI (Total Growth Inhibition),786-0 (kidney),>25 µg/mL
same,TGI (Total Growth Inhibition),[2],>25 µg/mL
same,TGI (Total Growth Inhibition),[3],>25 µg/mL
same,TGI (Total Growth Inhibition),MCF-7 (breast),>25 µg/mL
same,TGI (Total Growth Inhibition),[4],>25 µg/mL
same,TGI (Total Growth Inhibition),"U251 (glioma, CNS)",1.24 µg/mL
